Measurements published in publication PMC11012124, “Synthesis of Novel Triazine-Based Chalcones and 8,9-dihydro-7H-pyrimido[4,5-b][1,4]diazepines as Potential Leads in the Search of Anticancer, Antibacterial and Antifungal Agents” (International Journal of Molecular Sciences, 2024).

Columns and labels:
RPMI-8226 = assay: cells; conditions: Homo sapiens, RPMI-8226, 48 h; for CC50: read-out: LC50
SK-MEL-2 = assay: cells; conditions: Homo sapiens, SK-MEL-2, 48 h; for CC50: read-out: LC50
NCI-H226 = assay: cells; conditions: Homo sapiens, NCI-H226, 48 h; for CC50: read-out: LC50
OVCAR-4 = assay: cells; conditions: Homo sapiens, OVCAR-4, 48 h; for CC50: read-out: LC50
KM12 = assay: cells; conditions: Homo sapiens, KM12, 48 h
COLO 205 = assay: cells; conditions: Homo sapiens, COLO 205, 48 h; for CC50: read-out: LC50
ACHN = assay: cells; conditions: Homo sapiens, 48 h; for CC50: read-out: LC50
HCT-116 = assay: cells; conditions: Homo sapiens, HCT-116, 48 h; for CC50: read-out: LC50
60 cancer cell lines = assay: NCI-60 one-dose screen (10 μM); format: cell-based; conditions: Homo sapiens; one dose of 10 μM, mean over 60 cancer cell lines; read-out: Mean Growth Percent (MGP)
Source text: Additionally, the mean of the growth percentages (MGP) of each compound against all the 60 cancer cell lines is also reported, which is used as one of the selection criteria to continue with tests at five concentration doses.

IGROV1 = assay: cells; conditions: Homo sapiens, IGROV-1, 48 h; for CC50: read-out: LC50
M14 = assay: cells; conditions: Homo sapiens, M14, 48 h; for CC50: read-out: LC50
U251 = assay: cells; conditions: Homo sapiens, U-251, 48 h; for GI50: U251, 48 h; for CC50: read-out: LC50
HOP-62 = assay: cells; conditions: Homo sapiens, HOP-62, 48 h; for CC50: read-out: LC50
SW-620 = assay: cells; conditions: Homo sapiens, SW-620, 48 h; for CC50: read-out: LC50
SF-268 = assay: cells; conditions: Homo sapiens, SF-268, 48 h; for CC50: read-out: LC50
UO-31 = assay: cells; conditions: Homo sapiens, UO-31, 48 h; for CC50: read-out: LC50
SN12C = assay: cells; conditions: Homo sapiens, 48 h; for CC50: read-out: LC50
CCRF-CEM = assay: cells; conditions: Homo sapiens, 48 h; for CC50: read-out: LC50
HCT-15 = assay: cells; conditions: Homo sapiens, HCT-15, 48 h; for CC50: read-out: LC50
NCI-H23 = assay: cells; conditions: Homo sapiens, NCI-H23, 48 h; for CC50: read-out: LC50
NCI-H460 = assay: cells; conditions: Homo sapiens, NCI-H460, 48 h; for CC50: read-out: LC50
SNB-75 = assay: cells; conditions: Homo sapiens, SNB-75, 48 h; for CC50: read-out: LC50
NCI-H322M = assay: cells; conditions: Homo sapiens, 48 h; for CC50: read-out: LC50
786-0 = assay: cells; conditions: Homo sapiens, 786-0, 48 h; for CC50: read-out: LC50
MDA-MB-435 = assay: cells; conditions: Homo sapiens, MDA-MB-435, 48 h; for CC50: read-out: LC50
UACC-257 = assay: cells; conditions: Homo sapiens, UACC-257, 48 h; for CC50: read-out: LC50
BT-549 = assay: cells; conditions: Homo sapiens, BT-549, 48 h; for CC50: read-out: LC50
OVCAR-5 = assay: cells; conditions: Homo sapiens, OVCAR-5, 48 h; for CC50: read-out: LC50
HL-60(TB) = assay: cells; conditions: Homo sapiens, HL-60, 48 h; for CC50: read-out: LC50
SK-MEL-5 = assay: cells; conditions: Homo sapiens, SK-MEL-5, 48 h; for CC50: read-out: LC50
MALME-3M = assay: cells; conditions: Homo sapiens, 48 h; for CC50: read-out: LC50
SK-MEL-28 = assay: cells; conditions: Homo sapiens, SK-MEL-28, 48 h; for CC50: read-out: LC50
EKVX = assay: cells; conditions: Homo sapiens, 48 h; for CC50: read-out: LC50
OVCAR-8 = assay: cells; conditions: Homo sapiens, OVCAR-8, 48 h; for CC50: read-out: LC50
SNB-19 = assay: cells; conditions: Homo sapiens, SNB-19, 48 h; for CC50: read-out: LC50
SF-295 = assay: cells; conditions: Homo sapiens, SF-295, 48 h; for CC50: read-out: LC50
A549/ATCC = assay: cells; conditions: Homo sapiens, A549, 48 h; for CC50: read-out: LC50

For COc1cc(/C=C/C(=O)c2ccccc2)ccc1Oc1nc(Nc2ccc(F)cc2)nc(N(C)C)n1 [21a], the GI50 (RPMI-8226) was 2.83 µM, the CC50 (RPMI-8226) was > 100 µM and the GI50 (SK-MEL-2) was 4.68 µM. It also gave a CC50 (SK-MEL-2) of 63.1 µM, a GI50 (NCI-H226) of 4.94 µM and a CC50 (NCI-H226) of 64.9 µM. The GI50 (OVCAR-4) was 5.85 µM, the CC50 (OVCAR-4) was > 100 µM and the GI50 (KM12) was 14.9 µM. The CC50 (KM12; read-out: LC50) was > 100 µM, the GI50 (COLO 205) was 15.1 µM and the CC50 (COLO 205) was > 100 µM. The GI50 (ACHN) was 8.29 µM, the CC50 (ACHN) was > 100 µM and the GI50 (HCT-116) was 3.21 µM. The CC50 (HCT-116) was 45.5 µM, the activity at 10 µM (60 cancer cell lines) was 24.6% and the GI50 (IGROV1) was 18.7 µM. For the same molecule, the CC50 (IGROV1) was > 100 µM, the GI50 (M14) was 13 µM and the CC50 (M14) was > 100 µM. For the same molecule, the GI50 (U251) was 2.84 µM, the CC50 (U251) was 60.6 µM and the GI50 (HOP-62) was 26.6 µM. The CC50 (HOP-62) was > 100 µM, the GI50 (SW-620) was 1.81 µM and the CC50 (SW-620) was 8.7 µM. For the same molecule, the GI50 (SF-268) was 12.2 µM, the CC50 (SF-268) was > 100 µM and the GI50 (UO-31) was 4.4 µM. The CC50 (UO-31) was > 100 µM, the GI50 (SN12C) was 7.32 µM and the CC50 (SN12C) was 54.5 µM. The GI50 (CCRF-CEM) was 3.38 µM, the CC50 (CCRF-CEM) was > 100 µM and the GI50 (HCT-15) was 3.31 µM. For the same molecule, the CC50 (HCT-15) was 36.2 µM, the GI50 (NCI-H23) was 12.6 µM and the CC50 (NCI-H23) was > 100 µM. For the same molecule, the GI50 (NCI-H460) was 9.14 µM, the CC50 (NCI-H460) was 93.2 µM and the GI50 (SNB-75) was 4.7 µM. For the same molecule, the CC50 (SNB-75) was > 100 µM, the GI50 (NCI-H322M) was 28.7 µM and the CC50 (NCI-H322M) was > 100 µM. For the same molecule, the GI50 (786-0) was 20.5 µM, the CC50 (786-0) was > 100 µM and the GI50 (MDA-MB-435) was 7.39 µM. For the same molecule, the CC50 (MDA-MB-435) was 94.3 µM, the GI50 (UACC-257) was 6.44 µM and the CC50 (UACC-257) was > 100 µM. For the same molecule, the GI50 (BT-549) was 12 µM, the CC50 (BT-549) was 68.1 µM and the GI50 (OVCAR-5) was 13.9 µM. The CC50 (OVCAR-5) was > 100 µM, the GI50 (HL-60(TB)) was 8.37 µM and the CC50 (HL-60(TB)) was > 100 µM. For the same molecule, the GI50 (SK-MEL-5) was 6.21 µM, the CC50 (SK-MEL-5) was > 100 µM and the GI50 (MALME-3M) was 15.9 µM. It also gave a CC50 (MALME-3M) of 98.8 µM, a GI50 (SK-MEL-28) of 12.2 µM and a CC50 (SK-MEL-28) of 84.6 µM. The GI50 (EKVX) was 4.73 µM, the CC50 (EKVX) was > 100 µM and the GI50 (OVCAR-8) was 5.9 µM. It also gave a CC50 (OVCAR-8) of 97.6 µM, a GI50 (SNB-19) of 10.2 µM and a CC50 (SNB-19) of 74.9 µM. The GI50 (SF-295) was 6.89 µM, the CC50 (SF-295) was > 100 µM and the GI50 (A549/ATCC) was 11.7 µM. For the same molecule, the CC50 (A549/ATCC) was > 100 µM.
With COc1cc(/C=C/C(=O)c2ccc(S(=O)(=O)NCCNc3nc(Nc4ccc(F)cc4)nc(N(C)C)n3)cc2)cc(OC)c1OC [24d] the GI50 (RPMI-8226) was 2.5 µM, the CC50 (RPMI-8226) was > 100 µM and the GI50 (SK-MEL-2) was 13.5 µM. The CC50 (SK-MEL-2) was 59.5 µM, the GI50 (NCI-H226) was 4.47 µM and the CC50 (NCI-H226) was > 100 µM. For the same molecule, the GI50 (OVCAR-4) was 8.02 µM, the CC50 (OVCAR-4) was > 100 µM and the GI50 (KM12) was 2.07 µM. For the same molecule, the GI50 (COLO 205) was 4.78 µM, the CC50 (COLO 205) was 86.1 µM and the GI50 (ACHN) was 5.13 µM. It also gave a CC50 (ACHN) of 60.4 µM, a GI50 (HCT-116) of 1.77 µM and a CC50 (HCT-116) of 7.66 µM. The activity at 10 µM (60 cancer cell lines) was -0.31%, the GI50 (IGROV1) was 16.1 µM and the CC50 (IGROV1) was 59.8 µM. The GI50 (M14) was 3.28 µM, the CC50 (M14) was 47.4 µM and the GI50 (U251) was 1.81 µM. The CC50 (U251) was 6.89 µM, the GI50 (HOP-62) was 14.1 µM and the CC50 (HOP-62) was 59.9 µM. The GI50 (SW-620) was 1.95 µM, the CC50 (SW-620) was 7.43 µM and the GI50 (SF-268) was 11.7 µM. For the same molecule, the CC50 (SF-268) was > 100 µM, the GI50 (UO-31) was 4.45 µM and the CC50 (UO-31) was 41.4 µM. The GI50 (SN12C) was 5.71 µM, the CC50 (SN12C) was 63.6 µM and the GI50 (CCRF-CEM) was 3.62 µM. For the same molecule, the CC50 (CCRF-CEM) was > 100 µM, the GI50 (HCT-15) was 1.8 µM and the CC50 (HCT-15) was 6.57 µM. For the same molecule, the GI50 (NCI-H23) was 3.03 µM, the CC50 (NCI-H23) was 34.9 µM and the GI50 (NCI-H460) was 5.12 µM. The CC50 (NCI-H460) was 50.6 µM, the CC50 (SNB-75) was 91.9 µM and the GI50 (NCI-H322M) was 10.1 µM. The CC50 (NCI-H322M) was > 100 µM, the GI50 (786-0) was 2.94 µM and the CC50 (786-0) was 51.9 µM. It also gave a GI50 (MDA-MB-435) of 2.8 µM, a CC50 (MDA-MB-435) of 93.9 µM and a GI50 (UACC-257) of 15.1 µM. It also gave a CC50 (UACC-257) of 65.1 µM, a GI50 (BT-549) of 2.25 µM and a CC50 (BT-549) of 31.2 µM. For the same molecule, the GI50 (OVCAR-5) was 12.9 µM, the CC50 (OVCAR-5) was 55.4 µM and the GI50 (HL-60(TB)) was 2.64 µM. For the same molecule, the CC50 (HL-60(TB)) was > 100 µM, the GI50 (SK-MEL-5) was 3.4 µM and the CC50 (SK-MEL-5) was 36.2 µM. It also gave a GI50 (MALME-3M) of 11.9 µM, a CC50 (MALME-3M) of 55.2 µM and a GI50 (SK-MEL-28) of 6.13 µM. The CC50 (SK-MEL-28) was 44.6 µM, the GI50 (EKVX) was 4.85 µM and the CC50 (EKVX) was 42.2 µM. For the same molecule, the GI50 (OVCAR-8) was 11.1 µM, the CC50 (OVCAR-8) was > 100 µM and the GI50 (SNB-19) was 11.2 µM. The CC50 (SNB-19) was 48.7 µM, the GI50 (SF-295) was 2.16 µM and the CC50 (SF-295) was 11.1 µM. For the same molecule, the GI50 (A549/ATCC) was 12.2 µM and the CC50 (A549/ATCC) was 78.6 µM.
